These results are taken from US10392404B2, “Compounds and compositions as kinase inhibitors” (NOVARTIS AG, priority 2014, dated 2019).

For one experiment, the target named is T1, C-RAF (Homo sapiens, UniProt P04049, Y340E/Y341E).
T1 construct: His tag (implied by nickel chromatography) (cleaved yes); StrepII tag (cleaved yes); made in house; host or cells: Sf9 insect cells (baculovirus), CRAF and h14-3-3 zeta co-expressed; MEK1 substrate from E. coli
As to the kind of experiment: In vitro Raf activity determination (Alpha Screen, biotinylated kinase-dead MEK1 substrate), C-Raf. The class given is biochemical. The following applies: c-Raf approximately 4 nM; ATP 1 μM; pre-incubation 60 minutes; reaction 1 hour at room temperature. A digest of the protocol: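 AlphaScreen read-out of MEK phosphorylation using an anti-phospho-MEK1/2 antibody after a 1 hour room-temperature reaction at 1 μM ATP. Enzyme: approximately 4 nM Sf9-expressed full-length activated C-Raf (Y340E/Y341E, with 14-3-3ζ) on approximately 10 nM biotinylated K97R MEK1, after 60 min compound preincubation. IC50 by non-linear fit.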

A further experiment concerns the target T2, b-Raf (V600E) (Homo sapiens, UniProt P15056, V600E).
T2 construct: made in house
As to the kind of experiment: In vitro Raf activity determination (Alpha Screen, biotinylated kinase-dead MEK1 substrate), B-Raf. The class given is biochemical. Particulars: b-Raf (V600E) approximately 4 pM; ATP 10 μM; pre-incubation 60 minutes; reaction 3 hours at room temperature. A digest of the protocol: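 IC50 from non-linear regression of AlphaScreen phospho-MEK signal (anti-p-MEK1/2 antibody). b-Raf(V600E), about 4 pM, phosphorylated ~10 nM biotinylated K97R MEK1 with 10 μM ATP for 3 h at room temperature after 60 min compound pre-incubation; buffer pH 7.5 Tris, 15 mM MgCl2, 1 mM DTT.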

T1 sequence (P04049 whole entry Y340E/Y341E): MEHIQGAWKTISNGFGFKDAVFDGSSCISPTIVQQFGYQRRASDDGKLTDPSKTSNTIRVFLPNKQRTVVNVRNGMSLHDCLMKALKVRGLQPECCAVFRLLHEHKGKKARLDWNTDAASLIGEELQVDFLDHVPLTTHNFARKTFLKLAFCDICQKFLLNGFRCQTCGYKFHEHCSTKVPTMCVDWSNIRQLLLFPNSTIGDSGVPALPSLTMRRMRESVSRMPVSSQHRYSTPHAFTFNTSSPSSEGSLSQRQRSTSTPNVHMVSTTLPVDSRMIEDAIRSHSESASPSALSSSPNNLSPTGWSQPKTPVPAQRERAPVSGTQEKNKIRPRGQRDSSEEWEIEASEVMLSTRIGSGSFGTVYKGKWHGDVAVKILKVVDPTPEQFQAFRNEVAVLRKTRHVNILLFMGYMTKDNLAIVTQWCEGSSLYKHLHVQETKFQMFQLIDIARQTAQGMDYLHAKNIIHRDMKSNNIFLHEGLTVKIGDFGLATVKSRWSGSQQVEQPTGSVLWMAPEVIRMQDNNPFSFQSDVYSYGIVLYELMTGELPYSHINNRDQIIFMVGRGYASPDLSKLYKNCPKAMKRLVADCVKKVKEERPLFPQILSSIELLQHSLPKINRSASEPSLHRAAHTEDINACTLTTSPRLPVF
T1 sequence (P63104 whole entry partner): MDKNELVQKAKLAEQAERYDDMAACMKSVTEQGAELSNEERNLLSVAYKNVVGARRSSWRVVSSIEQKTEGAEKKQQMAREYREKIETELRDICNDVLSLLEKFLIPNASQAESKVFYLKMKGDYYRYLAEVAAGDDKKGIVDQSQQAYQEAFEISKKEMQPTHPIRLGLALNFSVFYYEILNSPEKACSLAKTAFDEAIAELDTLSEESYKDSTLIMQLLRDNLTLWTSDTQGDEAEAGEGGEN
T2 sequence (P15056 whole entry V600E): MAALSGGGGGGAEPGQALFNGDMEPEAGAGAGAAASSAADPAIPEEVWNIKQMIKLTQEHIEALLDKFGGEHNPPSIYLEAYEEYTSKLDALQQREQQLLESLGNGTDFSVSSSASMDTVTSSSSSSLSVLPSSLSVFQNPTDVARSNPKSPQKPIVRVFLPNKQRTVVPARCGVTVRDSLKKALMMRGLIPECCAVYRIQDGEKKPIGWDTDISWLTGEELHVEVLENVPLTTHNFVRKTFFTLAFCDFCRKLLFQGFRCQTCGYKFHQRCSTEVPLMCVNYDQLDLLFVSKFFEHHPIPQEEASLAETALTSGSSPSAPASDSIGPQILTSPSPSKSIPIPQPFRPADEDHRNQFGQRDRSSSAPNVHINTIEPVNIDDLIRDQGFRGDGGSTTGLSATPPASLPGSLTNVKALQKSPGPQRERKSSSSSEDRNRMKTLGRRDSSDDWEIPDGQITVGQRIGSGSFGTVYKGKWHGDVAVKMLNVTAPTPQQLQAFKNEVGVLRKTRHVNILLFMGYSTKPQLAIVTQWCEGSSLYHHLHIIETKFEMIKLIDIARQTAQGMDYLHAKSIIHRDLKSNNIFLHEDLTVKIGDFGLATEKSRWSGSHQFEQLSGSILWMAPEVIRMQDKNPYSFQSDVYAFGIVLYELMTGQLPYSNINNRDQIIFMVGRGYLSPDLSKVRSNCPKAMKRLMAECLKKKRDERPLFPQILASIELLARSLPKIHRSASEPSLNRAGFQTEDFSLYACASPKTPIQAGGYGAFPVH

For the compound `Cc1ncc(NC(=O)c2cccc(C(F)F)c2)cc1-c1cnc(N2CCOCC2)c(C#N)c1` [Example 132, N-(5′-cyano-2-methyl-6′-morpholino-[3,3′-bipyridin]-5-yl)-3-(difluoromethyl) benzamide], the IC50 was 0.117 nM against C-RAF and 0.542 nM against b-Raf (V600E).
On to `Cc1ncc(NC(=O)c2ccnc(S(C)(=O)=O)c2)cc1-c1cnc(N(C)C)c(C#N)c1` [Example 271, N-(5′-cyano-6′-(dimethylamino)-2-methyl-[3,3′-bipyridin]-5-yl)-2-(methylsulfonyl) isonicotinamide], for which the IC50 against C-RAF is 1.15 nM; on b-Raf (V600E), 11.2 nM.
Consider `Cc1ccc(NC(=O)c2ccnc(C(F)(F)F)c2)cc1-c1cnc(NC(C)C)c(C#N)c1` [Example 22, N-(3-(5-cyano-6-(isopropylamino)pyridin-3-yl)-4-methylphenyl)-2-(trifluoromethyl) isonicotinamide], for which the IC50 against C-RAF was 0.314 nM; on b-Raf (V600E), 1.25 nM.
For `Cc1ncc(NC(=O)c2cccc(C(F)(F)F)c2)cc1-c1cnc(N)c(C#N)c1` [Example 4, N-(6′-amino-5′-cyano-2-methyl-[3,3′-bipyridin]-5-yl)-3-(trifluoromethyl) benzamide] the same measures were 0.211 nM and 1.63 nM.
For `Cc1ccc(NC(=O)c2cccc(C(F)(F)F)c2)cc1-c1cnc(NC(C)C)c(C#N)c1` [Example 18, N-(3-(5-cyano-6-(isopropylamino)pyridin-3-yl)-4-methylphenyl)-3-(trifluoromethyl) benzamide] the same measures were 0.386 nM and 3.44 nM.
In the same order, the values of `CCn1cc(C(=O)Nc2ccc(C)c(-c3cnc(N4CC(C)(O)C4)c(C#N)c3)c2)cc(C(F)(F)F)c1=O` [Example 221, N-(3-(5-cyano-6-(3-hydroxy-3-methylazetidin-1-yl)pyridin-yl)-4-methylphenyl)-1-ethyl-6-oxo-5-(trifluoromethyl)-1,6-dihydropyridine-3-carboxamide] are 0.591 nM and 3.65 nM.
Take `Cc1ncc(NC(=O)c2cccc(C(F)F)c2)cc1-c1cnc(N2CC(C)(O)C2)c(C#N)c1` [Example 184, N-(5′-cyano-6′-(3-hydroxy-3-methylazetidin-1-yl)-2-methyl-[3,3′-bipyridin]-5-yl)-3-(difluoromethyl) benzamide]: the IC50 worked out at 1.14 nM against C-RAF and 7.88 nM against b-Raf (V600E).
In the same order, the values of `CCNc1ncc(-c2cc(NC(=O)c3ccnc(C(F)(F)F)c3)ccc2C)cc1C#N` [Example 24, N-(3-(5-cyano-6-(ethylamino)pyridin-3-yl)-4-methylphenyl)-2-(trifluoromethyl) isonicotinamide] are 0.123 nM and 0.805 nM.
In the same order, the values of `Cc1ncc(NC(=O)c2cccc(C(F)(F)F)c2)cc1-c1cnc(N2CC(O)C2)c(C#N)c1` [Example 67, N-(5′-cyano-6′-(3-hydroxyazetidin-1-yl)-2-methyl-[3,3′-bipyridin]-5-yl)-3-(trifluoromethyl) benzamide] are 0.225 nM and 1.24 nM.
Consider `Cc1ccc(NC(=O)c2cccc(C(F)(F)F)c2)cc1-c1cnc(-c2cnn(C)c2)c(C#N)c1` [Example 123, N-(3-(5-cyano-6-(1-methyl-1H-pyrazol-4-yl)pyridin-3-yl)-4-methylphenyl)-3-(trifluoromethyl) benzamide], for which the IC50 against C-RAF was 0.15 nM; against b-Raf (V600E), 1.18 nM.
In the same order, the values of `Cc1ccc(NC(=O)c2cccc(C(F)(F)F)c2)cc1-c1cc(C#N)cnc1N` [Example 13, N-(3-(2-amino-5-cyanopyridin-3-yl)-4-methylphenyl)-3-(trifluoromethyl) benzamide] are 0.284 nM and 5.61 nM.
For `Cc1ccc(NC(=O)c2ccnc(C3CC3)c2)cc1-c1cnc(N2CC(C)(O)C2)c(C#N)c1` [Example 219, N-(3-(5-cyano-6-(3-hydroxy-3-methylazetidin-1-yl)pyridin-3-yl)-4-methylphenyl)-2-cyclopropyl-isonicotinamide] the same measures were 0.171 nM and 1.31 nM.
For `Cc1ccc(NC(=O)c2ccnc(C(C)(C)C#N)c2)cc1-c1cnc(NC(C)C)c(C#N)c1` [Example 20, N-(3-(5-cyano-6-(isopropylamino)pyridin-3-yl)-4-methylphenyl)-2-(2-cyanopropan-2-yl)isonicotinamide] the same measures were 0.467 nM and 1.67 nM.
In the case of `Cc1ccc(NC(=O)c2ccnc(C(F)(F)F)c2)cc1-c1cnc(-n2ccc(=O)cc2)c(C#N)c1` [Example 119, N-(3-(3′-cyano-4-oxo-4H-[1,2′-bipyridin]-5′-yl)-4-methylphenyl)-2-(trifluoromethyl) isonicotinamide], the values for the IC50 on C-RAF and at b-Raf (V600E) were 1.65 nM and 12.2 nM, respectively.
As to `Cc1ccc(NC(=O)c2ccnc(C(C)(C)F)c2)cc1-c1cnc(N2CCNCC2)c(C#N)c1` [Example 164, N-(3-(5-cyano-6-(piperazin-1-yl)pyridin-3-yl)-4-methylphenyl)-2-(2-fluoropropan-2-yl)isonicotinamide], the IC50 was 0.222 nM against C-RAF and 0.683 nM on b-Raf (V600E).
On to `Cc1ncc(NC(=O)c2ccnc(C(C)C)c2)cc1-c1cnc(C2CCOCC2)c(C#N)c1` [Example 130, N-(5′-cyano-2-methyl-6′-(tetrahydro-2H-pyran-4-yl)-[3,3′-bipyridin]-5-yl)-2-isopropyl-isonicotinamide], for which the figures for the IC50 against C-RAF and at b-Raf (V600E) were 0.879 nM and 4.83 nM, respectively.
In the same order, the values of `Cc1ncc(NC(=O)c2cccc(C(F)(F)F)n2)cc1-c1cnc(C2CCOCC2)c(C#N)c1` [Example 141, N-(5′-cyano-2-methyl-6′-(tetrahydro-2H-pyran-4-yl)-[3,3′-bipyridin]-5-yl)-6-(trifluoromethyl) picolinamide] are 5.13 nM and 56.2 nM.
In the same order, the values of `COCCNc1ncc(-c2cc(NC(=O)c3cnnc(C(F)(F)F)c3)ccc2C)cc1C#N` [Example 179, N-(3-(5-cyano-6-((2-methoxyethyl)amino)pyridin-3-yl)-4-methylphenyl)-6-(trifluoromethyl) pyridazine-4-carboxamide] are 0.588 nM and 4.11 nM.
On to `Cc1ncc(NC(=O)c2cc(C3CC3)on2)cc1-c1cnc(N(C)C)c(C#N)c1` [Example 262, N-(5′-cyano-6′-(dimethylamino)-2-methyl-[3,3′-bipyridin]-5-yl)-5-cyclopropylisoxazole-3-carboxamide], for which the IC50 at C-RAF came out at 2.16 nM; at b-Raf (V600E), 10.9 nM.
As to `Cc1ncc(NC(=O)c2cc(C(C)(C)N)cc(C(F)(F)F)c2)cc1-c1cnc(N2CC(C)(O)C2)c(C#N)c1` [Example 247, 3-(2-aminopropan-2-yl)-N-(5′-cyano-6′-(3-hydroxy-3-methylazetidin-1-yl)-2-methyl-[3,3′-bipyridin]-5-yl)-5-(trifluoromethyl) benzamide], the IC50 against C-RAF turned out to be 4.96 nM; at b-Raf (V600E), 30.7 nM.
For `Cc1ncc(NC(=O)c2ccnc(C(C)(C)C#N)c2)cc1-c1cnc(NC(C)C)c(C#N)c1` [Example 28, N-(5′-cyano-6′-(isopropylamino)-2-methyl-[3,3′-bipyridin]-5-yl)-2-(2-cyanopropan-2-yl)isonicotinamide] the same measures were 2.55 nM and 9.82 nM.

The IC50 is the concentration that inhibits the measured activity by half. A high value points to lower potency.
